Source: PubChem BioAssay (NCI)
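96-well plates; 48 h exposure; 5 concentrations. Endpoints by linear interpolation between flanking doses. Not reached: highest tested concentration assigned. The concentration for full growth arrest is given as TGI.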

Columns and labels:
Assay in all cases: DTP human tumour cell line panel, 48 h
[1] = tested on: M19-MEL melanoma
[2] = tested on: SW-620 colon
[3] = tested on: TK-10 renal
[4] = tested on: NCI-H226 lung
[5] = tested on: U251 CNS
[6] = tested on: SF-295 CNS
[7] = tested on: XF 498 CNS
[8] = tested on: UO-31 renal
[9] = tested on: SNB-75 CNS
[10] = tested on: K-562 leukemia
[11] = tested on: HL-60(TB) leukemia
[12] = tested on: DMS 114 small cell lung
[13] = tested on: SF-268 CNS
[14] = tested on: LOX IMVI melanoma
[15] = tested on: KM20L2 colon
[16] = tested on: CCRF-CEM leukemia
[17] = tested on: A549 NSCLC
[18] = tested on: KM12 colon
[19] = tested on: UACC-62 melanoma
[20] = tested on: NCI-H23 lung
[21] = tested on: HCT-15 colon
[22] = tested on: IGROV1 ovarian
[23] = tested on: MOLT-4 leukemia
[24] = tested on: MALME-3M melanoma
[25] = tested on: LXFL 529 NSCLC
[26] = tested on: ACHN renal
[27] = tested on: DLD-1 colon
[28] = tested on: DMS 273 small cell lung
[29] = tested on: HCC-2998 colon
[30] = tested on: SK-MEL-2 melanoma
[31] = tested on: SK-MEL-5 melanoma
[32] = tested on: NCI-H522 lung
[33] = tested on: CAKI-1 renal
[34] = tested on: OVCAR-8 ovarian
[35] = tested on: EKVX NSCLC
[36] = tested on: 786-0 renal
[37] = tested on: RXF-631 renal
[38] = tested on: SN12C renal
[39] = tested on: HCT-116 colon
[40] = tested on: SNB-19 CNS
[41] = tested on: COLO 205 colon
[42] = tested on: SR leukemia
[43] = tested on: RPMI-8226 leukemia
[44] = tested on: SF-539 CNS
[45] = tested on: UACC-257 melanoma
[46] = tested on: OVCAR-4 ovarian
[47] = tested on: OVCAR-3 ovarian
[48] = tested on: RXF 393 renal
[49] = tested on: SK-OV-3 ovarian
[50] = tested on: HOP-62 NSCLC
[51] = tested on: A498 renal
[52] = tested on: NCI-H460 lung
[53] = tested on: HT29 colon
[54] = tested on: SK-MEL-28 melanoma
[55] = tested on: OVCAR-5 ovarian
[56] = tested on: SNB-78 CNS

**Q.** What does the source list for `O=C1c2ccccc2C(=O)N1C/C=N/NS(=O)(=O)c1ccc(F)cc1`?
**A.** TGI [1]: > 100 µM; TGI [2]: > 100 µM; TGI [3]: > 100 µM; TGI [4]: > 100 µM; TGI [5]: > 100 µM; TGI [6]: > 100 µM; TGI [7]: > 100 µM; TGI [8]: > 100 µM; TGI [9]: > 100 µM; TGI [10]: > 100 µM; TGI [11]: > 100 µM; TGI [12]: > 100 µM; TGI [13]: > 100 µM; TGI [14]: > 100 µM; TGI [15]: > 100 µM; TGI [16]: > 100 µM; TGI [17]: > 100 µM; TGI [18]: > 100 µM; TGI [19]: > 100 µM; TGI [20]: > 100 µM; TGI [21]: > 100 µM; TGI [22]: > 100 µM; TGI [23]: > 100 µM; TGI [24]: > 100 µM; TGI [25]: > 100 µM; TGI [26]: > 100 µM; TGI [27]: > 100 µM; TGI [28]: > 100 µM; TGI [29]: > 100 µM; TGI [30]: > 100 µM; TGI [31]: > 100 µM; TGI [32]: > 100 µM; TGI [33]: > 100 µM; TGI [34]: > 100 µM; TGI [35]: > 100 µM; TGI [36]: > 100 µM; TGI [37]: > 100 µM; TGI [38]: > 100 µM; TGI [39]: > 100 µM; TGI [40]: > 100 µM; TGI [41]: > 100 µM; TGI [42]: > 100 µM; TGI [43]: > 100 µM; TGI [44]: > 100 µM; TGI [45]: > 100 µM; TGI [46]: > 100 µM

**Q.** How did the TGI [1] turn out when `O=C(c1ccc(Cl)cc1Cl)N(/N=C/C=C/c1ccccc1)c1nnc(-c2ccccc2)c(-c2ccccc2)n1` was run?
**A.** > 100 µM

**Q.** And the TGI [2]?
**A.** > 100 µM

**Q.** And the TGI [47]?
**A.** > 100 µM

**Q.** And the TGI [48]?
**A.** > 100 µM

**Q.** What about the TGI [3] of the same compound?
**A.** > 100 µM

**Q.** And the TGI [4]?
**A.** > 100 µM

**Q.** What about the TGI [5] of the same compound?
**A.** > 100 µM

**Q.** What about the TGI [6] of the same compound?
**A.** > 100 µM

**Q.** What about the TGI [7] of the same compound?
**A.** > 100 µM

**Q.** And the TGI [8]?
**A.** > 100 µM

**Q.** And the TGI [9]?
**A.** > 100 µM

**Q.** What about the TGI [10] of the same compound?
**A.** > 100 µM

**Q.** What about the TGI [49] of the same compound?
**A.** > 100 µM

**Q.** What about the TGI [11] of the same compound?
**A.** > 100 µM

**Q.** And the TGI [12]?
**A.** > 100 µM

**Q.** And the TGI [13]?
**A.** > 100 µM

**Q.** And the TGI [14]?
**A.** > 100 µM

**Q.** And the TGI [15]?
**A.** > 100 µM

**Q.** And the TGI [16]?
**A.** > 100 µM

**Q.** What about the TGI [17] of the same compound?
**A.** > 100 µM

**Q.** What about the TGI [18] of the same compound?
**A.** > 100 µM

**Q.** What about the TGI [19] of the same compound?
**A.** > 100 µM

**Q.** What about the TGI [20] of the same compound?
**A.** > 100 µM

**Q.** And the TGI [21]?
**A.** > 100 µM

**Q.** And the TGI [22]?
**A.** > 100 µM

**Q.** What about the TGI [23] of the same compound?
**A.** > 100 µM

**Q.** What about the TGI [24] of the same compound?
**A.** > 100 µM

**Q.** What about the TGI [26] of the same compound?
**A.** > 100 µM

**Q.** And the TGI [27]?
**A.** > 100 µM

**Q.** And the TGI [28]?
**A.** > 100 µM

**Q.** What about the TGI [29] of the same compound?
**A.** > 100 µM

**Q.** And the TGI [30]?
**A.** > 100 µM

**Q.** And the TGI [31]?
**A.** > 100 µM

**Q.** And the TGI [32]?
**A.** 82.5 µM

**Q.** And the TGI [50]?
**A.** > 100 µM

**Q.** And the TGI [51]?
**A.** > 100 µM

**Q.** And the TGI [52]?
**A.** > 100 µM

**Q.** What about the TGI [34] of the same compound?
**A.** > 100 µM

**Q.** And the TGI [53]?
**A.** > 100 µM

**Q.** What about the TGI [35] of the same compound?
**A.** > 100 µM

**Q.** And the TGI [36]?
**A.** > 100 µM

**Q.** What about the TGI [37] of the same compound?
**A.** > 100 µM

**Q.** What about the TGI [38] of the same compound?
**A.** > 100 µM

**Q.** What about the TGI [40] of the same compound?
**A.** > 100 µM

**Q.** And the TGI [41]?
**A.** > 100 µM

**Q.** What about the TGI [54] of the same compound?
**A.** > 100 µM

**Q.** What about the TGI [43] of the same compound?
**A.** > 100 µM

**Q.** And the TGI [44]?
**A.** > 100 µM

**Q.** What about the TGI [55] of the same compound?
**A.** > 100 µM

**Q.** What about the TGI [56] of the same compound?
**A.** > 100 µM

**Q.** What about the TGI [45] of the same compound?
**A.** > 100 µM

**Q.** And the TGI [46]?
**A.** > 100 µM
